Like-named read-outs stand apart in the source and are kept apart here.
Tests used:
Assay type in all cases: biochemical
17(alpha)-hydroxylase = molecular target: T1, 17(alpha)-hydroxylase (Rattus norvegicus, UniProt P11715); assay: 17(alpha)-hydroxylase assay, rat testicular microsomes (Example 1, Table 1); details: rat testicular microsomes, progesterone substrate, 30 min, 37 C; N.I. = no inhibition
T1 construct: approximately 1 mg rat testicular microsomal protein in 450 microliters phosphate buffer; from tissue; host or cells: testes of adult male Sprague-Dawley rats (Charles River), microsomal fraction
T1 sequence (P11715 1-507): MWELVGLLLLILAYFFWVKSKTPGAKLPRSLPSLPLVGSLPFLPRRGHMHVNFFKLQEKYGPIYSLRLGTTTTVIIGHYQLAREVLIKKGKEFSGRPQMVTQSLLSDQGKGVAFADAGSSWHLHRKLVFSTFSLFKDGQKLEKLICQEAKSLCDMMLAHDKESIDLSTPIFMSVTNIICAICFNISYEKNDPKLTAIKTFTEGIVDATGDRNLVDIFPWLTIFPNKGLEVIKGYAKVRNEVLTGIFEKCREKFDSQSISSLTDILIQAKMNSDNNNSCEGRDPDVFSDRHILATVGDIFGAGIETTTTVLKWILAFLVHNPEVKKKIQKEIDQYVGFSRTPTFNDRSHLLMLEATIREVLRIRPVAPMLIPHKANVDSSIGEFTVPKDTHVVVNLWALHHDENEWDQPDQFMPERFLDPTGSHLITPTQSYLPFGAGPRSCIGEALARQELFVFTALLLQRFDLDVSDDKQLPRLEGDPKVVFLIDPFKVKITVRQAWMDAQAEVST
Experimental: (§1) Testes were obtained from 220°-250g adult male Sprague-Dawley rats (Charles River), immediately frozen in liquid nitrogen and stored at -70° C. After thawing in the ice bath, the testes were minced and homogenized in 0.25M sucrose (1:4 w/v), then centrifuged at 12,000×gfor 30 min and the resulting supernatant centrifuged at 105,000×g for one hour. The supernatant was then decanted and the pellet containing the microsomes was resuspended in 0.1M sodium phosphate buffer (pH 7.4) (2.5g wet weight of tissue/ 2 ml buffer). All the above procedures were performed at 4C. The microsomal fraction was stored at -70C. Just before use, microsomes were diluted to the concentration of 1.25 g wet weight of tissue/10 ml phosphate buffer.
(§2) The incubation was stopped by cooling the mixture in an ice bath and adding 2 ml ether to each incubation tube. The ^3 H-labelled steriods (progesterone P4; 17(alpha)-hydroxyprogesterone 170HP4, androstenedione A and testosterone T, 8,000dpm each) were added as recovery markers and the steroids were extracted with ether (2 ml×3). The ether was evaporated with air. Steroid carriers (P4, 17-0HP4, A and T, 4 micrograms each) were added to the extracts which were then applied to thin layer chromatography (TLC) plates for separation of the steroids. After development for 1.5 hours in hexanes/ethyl acetate, 65:35(v/v), the steroids were located by UV (254 nm) absorption, scraped off and eluted into scintillation vials with ether. After evaporating the ether, the steroids were dissolved in counting cocktail and the radioactivity measured. The recovery of steroids calculated from the ^3 H-labelled markers was between 80 to 90 percent and the enzyme activity was determined from the percentage conversion of [4-C^14 ]-progesterone to 170HP4, A and T.
(§3) The purity of each steroid on the TLC was confirmed by two methods. First, the percent conversion of each compound in a half amount of the extract from one incubation were compared after separation of TLC and HPLC. The HPLC procedure has been described in detail previously. The solvent system used was methanol/acetonitrile/water (15.6:36.4:48). The flow rate was 1 ml/min and pressure 2200 psi, the retention time of these steroids was P4 38.3 min, 170HP4 15.93 min, A 14.33 min, and T 11.43 min, respectively. Secondly, after the first separation by TLC in solvent system A (hexane/ethyl acetate 65:35), the eluted steroids were chromatographed in solvent system B (chloroform/acetonitrile, 85:15).
^1 Incubation of [4^14 Cprogesterone (various concentration,
microsome (approximately 1 mg protein) and NADPH generating system was
carried out at 37 C. under O2 for 30 min. The apparent Km for this

C17,20-lyase = molecular target: T2, C17,20-lyase (Rattus norvegicus, UniProt P11715); assay: C17,20-lyase assay, rat testicular microsomes (Example 1, Table 1); details: rat testicular microsomes, 17(alpha)-hydroxyprogesterone substrate, 30 min, 37 C; N.I. = no inhibition
T2 construct: approximately 1 mg rat testicular microsomal protein in 450 microliters phosphate buffer; from tissue; host or cells: testes of adult male Sprague-Dawley rats (Charles River), microsomal fraction
T2 sequence (P11715 1-507): T1 sequence (P11715 1-507)
Experimental: as §1
(§4) C^17,20 -Lyase: The procedure for measurement of the C17,20 -lyase was similar to the procedure for the 17(alpha)-hydroxylase, except that the substrate was 17(alpha)-hydroxy-[[1,2,6,7-^3 H]-progesterone (various concentration, 10^5 dpm) and recovery markers were [4-^14 C]-labelled steroids. Carrier steroids (170HP4, A and T) were also added to locate the product areas on the TLC plates. The enzyme activity was determined from the percent conversion of 17(alpha)-hydroxy-[1,2,6,7-3H]-progesterone to A and T.
as §3, with “The flow rate was 1 ml/min and pressure 2200 psi, the retention time of these steroids was P4 38.3 min, 170HP4 15.93 min, A 14.33 min, and T 11.43 min, respectively.” left out

[1] = molecular target: T3, 17(alpha)-hydroxylase/C17,20-lyase (Rattus norvegicus, UniProt P11715); assay: Hydroxylase/lyase assay, rat testis homogenates, [21-14C]-progesterone side-chain cleavage (Examples 2 and 3, Table 2); details: progesterone 40 microM, 45 min
T3 construct: with rat testis homogenates (2.7 mg protein in 0.5 ml phosphate buffer); from tissue; host or cells: rat testis homogenate
T3 sequence (P11715 1-507): T1 sequence (P11715 1-507)
Experimental: Compounds I-16 and I-25 were synthesized according to known procedures. The compounds were then assayed for their ability to inhibit the 17(alpha)-hydroxylase/C17,20 -lyase enzyme and the 5(alpha)-reductaseenzyme. The hydroxylase/lyase assay was carried out by incubation of [21-^14 C]-progesterone (40 microM, 70,000 dpm) and candidate inhibitors with rat testis homogenates (2.7 mg protein in 0.5 ml phosphate buffer), NADPH generating system under oxygen for 45 minutes. The enzyme activity was measured according to the conversion of progesterone to the product of C17,20 -side chain cleavage ([2-^14 C]-acetic acid). […] The results were based on the TLC separation.

[2] = molecular target: T4, 17(alpha)-hydroxylase/17,20-lyase enzyme (Rattus norvegicus, UniProt P11715); assay: 17(alpha)-hydroxylase/17,20-lyase inhibition, rat testicular microsomes (Example 1); details: result in words
T4 sequence (P11715 1-507): T1 sequence (P11715 1-507)
Experimental: as §1
as §2, with “After development for 1.5 hours in hexanes/ethyl acetate, 65:35(v/v), the steroids were located by UV (254 nm) absorption, scraped off and eluted into scintillation vials with ether.” left out
as §4, with “Carrier steroids (170HP4, A and T) were also added to locate the product areas on the TLC plates.” left out

[3] = molecular target: T5, rat testicular 17(alpha)-hydroxylase/C17,20-lyase (Rattus norvegicus, UniProt P11715); assay: Hydroxylase/lyase assay, rat testicular homogenates, [21-14C]progesterone (Example 4, Table 3); details: 0.75 h
T5 construct: rat testicular homogenates (prepared from 220-250g adult male Sprague-Dawley rats); from tissue; host or cells: testes of adult male Sprague-Dawley rats, homogenate
T5 sequence (P11715 1-507): T1 sequence (P11715 1-507)
Experimental: The assay was performed by incubation of rat testicular homogenates (prepared from 220-250g adult male Sprague-Dawley rats, approx. 3.5 mg protein) with [21-^14 C]progesterone (40uM, 5×10^4 dpm), NADPH generating system and candidate inhibitors in phosphate buffer (pH 7.4, total volume 500ul) under oxygen for 45 min at 37° C. Two ml of choloroform was added to each tube to stop the reaction. The steriods were extracted with chloroform and the aqueous phase was treated with charcoal. The side chain cleavage product [2-^14 C]acetic acid in the aqueous phase was mixed with 3a70B counting cocktail and counted on the Rack Beta II liquid scintillation counter. The enzyme activity was determined from the conversion of progesterone P4 to [2-^14 C]acetic acid.

[4] = pH 7.4, read-out: Inhibition of 17(alpha)-hydroxylase/C17,20-lyase (%), [I] = 10 × [S]
[5] = pH 7.4, read-out: Inhibition of 17(alpha)-hydroxylase/C17,20-lyase (%), [I] = [S]
[6] = [I] = 10 × [S], progesterone 40uM, pH 7.4, 45 min, 37 C, read-out: Inhibition of 17(alpha)-hydroxylase/C17,20-lyase (%), [I] = 10 × [S]
[7] = [I] = [S], progesterone 40uM, pH 7.4, 45 min, 37 C, read-out: Inhibition of 17(alpha)-hydroxylase/C17,20-lyase (%), [I] = [S]

## CCN(CC)C(=O)[C@H]1CC[C@H]2[C@@H]3CC[C@H]4N(C)C(=O)CC[C@]4(C)[C@H]3CC[C@]12C [Compound 4-MA, N,N-diethyl-4-methyl-3-oxo-4-aza-5(alpha)-androstane-17(beta)-carboxyamide, reference compound]
17(alpha)-hydroxylase
  17(alpha)-hydroxylase Ki: N.I
C17,20-lyase
  C17,20-lyase Ki: N.I.
[1]
  % Inhibition of 17(alpha)hydroxylase/lyase, [I] = 10 × [S]: No inhibition
  % Inhibition of 17(alpha)hydroxylase/lyase, [I] = [S]: No inhibition
[2]
  inhibition of the 17(alpha)-hydroxylase/17,20-lyase enzyme: did not show any inhibition

## C[C@]12CCC(=O)C(O)=C1CC[C@@H]1[C@@H]2CC[C@]2(C)C(=O)CC[C@@H]12 [Compound 4-OHA, 4-hydroxy androstenedione, reference compound]
[2]
  inhibition of the 17(alpha)-hydroxylase/17,20-lyase enzyme: did not show any inhibition

## CC(=NO)[C@H]1CC[C@H]2[C@@H]3CC=C4C[C@@H](O)CC[C@]4(C)[C@H]3CC[C@]12C [Compound I-1]
[3]; [4]
  inhibition at 400 µM: 29.2%
[3]; [5]
  inhibition at 40 µM: 15%

## CC(=NO)C1=CC[C@H]2[C@@H]3CC=C4C[C@@H](O)CC[C@]4(C)[C@H]3CC[C@]12C [Compound I-5]
[3]; [4]
  inhibition at 400 µM: 51.8%
[3]; [5]
  inhibition at 40 µM: 25.2%

## C[C@]12CC[C@H]3[C@@H](CC=C4C[C@@H](O)CC[C@@]43C)[C@@H]1CC[C@@H]2[C@]1(C)CO1 [Compound I-7, (20R)-20,21-epoxy-20-methyl-5-pregnen-3(beta)ol]
[3]; [4]
  inhibition at 400 µM: 28.3%
[3]; [5]
  inhibition at 40 µM: 21.6%

## C[C@]12CC[C@H]3[C@@H](CC=C4C[C@@H](O)CC[C@@]43C)[C@@H]1CC[C@@H]2[C@@]1(C)CO1 [Compound I-8, (20S)-20,21-epoxy-20-methyl-5-pregnen-3(beta)-ol]
[3]; [4]
  inhibition at 400 µM: 29.4%
[3]; [5]
  inhibition at 40 µM: 16.3%

## C[C@H](N)[C@H]1CC[C@H]2[C@@H]3CC=C4C[C@@H](O)CC[C@]4(C)[C@H]3CC[C@]12C [Compound I-9]
[3]; [4]
  inhibition at 400 µM: 27.3%
[3]; [5]
  inhibition at 40 µM: 13.6%

## C[C@@H](N)[C@H]1CC[C@H]2[C@@H]3CC=C4C[C@@H](O)CC[C@]4(C)[C@H]3CC[C@]12C [Compound I-10]
[3]; [4]
  inhibition at 400 µM: 33.8%
[3]; [5]
  inhibition at 40 µM: 8.54%

## CC(=NN)[C@H]1CC[C@H]2[C@@H]3CC=C4C[C@@H](O)CC[C@]4(C)[C@H]3CC[C@]12C [Compound I-12]
[3]; [6]
  inhibition at 400 µM: 25.9%
[3]; [7]
  inhibition at 40 µM: 8.55%

## CC(=NN(C)C)C1=CC[C@H]2[C@@H]3CC=C4C[C@@H](O)CC[C@]4(C)[C@H]3CC[C@]12C [Compound I-14, 5,16-Pregnadien-3(beta)-ol-20-one N,N-dimethyl hydrazone]
[3]; [6]
  inhibition at 400 µM: 2.34%
[3]; [7]
  inhibition at 40 µM: 10.2%

## C[C@H](C=NN(C)C)[C@H]1CC[C@H]2[C@@H]3CCC4=CC(=O)CC[C@]4(C)[C@H]3CC[C@]12C [Compound I-15, 4-pregnen-3-oxo-20(beta)-carboxaldehyde N,N-dimethyl hydrazone]
[3]; [6]
  inhibition at 400 µM: 52.7%
[3]; [7]
  inhibition at 40 µM: 22.4%

## C[C@H](C=O)[C@H]1CC[C@H]2[C@@H]3CCC4=CC(=O)CC[C@]4(C)[C@H]3CC[C@]12C [Compound I-16, 4-pregnen-3-one-20(beta)carboxaldehyde]
[1]
  % Inhibition of 17(alpha)hydroxylase/lyase, [I] = 10 × [S]: 89.95%
  % Inhibition of 17(alpha)hydroxylase/lyase, [I] = [S]: 61.76%

## CC(=O)[C@@]12O[C@@H]1C[C@H]1[C@@H]3CCC4=CC(=O)CC[C@]4(C)[C@H]3CC[C@@]12C [Compound I-18]
[3]; [6]
  inhibition at 400 µM: 64.2%
[3]; [7]
  inhibition at 40 µM: 26.5%

## CC(=O)OC1=CC2=CC[C@H]3[C@@H]4CC[C@H]([C@H](C)C#N)[C@@]4(C)CC[C@@H]3[C@@]2(C)CC1 [Compound I-24]
[3]; [6]
  inhibition at 400 µM: 67.2%
[3]; [7]
  inhibition at 40 µM: 33.6%

## CC(O)(C#N)[C@H]1CC[C@H]2[C@@H]3CCC4=CC(=O)CC[C@]4(C)[C@H]3CC[C@]12C (some centres unmarked) [Compound I-25, 20-cyano-20-hydroxy-4-pregnen-3-one]
[1]
  % Inhibition of 17(alpha)hydroxylase/lyase, [I] = 10 × [S]: 89.32%
  % Inhibition of 17(alpha)hydroxylase/lyase, [I] = [S]: 50.63%

## CC(C#N)=C1CC[C@H]2[C@@H]3CCC4=CC(=O)CC[C@]4(C)[C@H]3CC[C@]12C [Compound I-26, 20-cyano-4,17(20)-pregnadien-3-one]
[3]; [4]
  inhibition at 400 µM: 89.7%
[3]; [5]
  inhibition at 40 µM: 53.5%

## C=C[C@H]1CC[C@H]2[C@@H]3CC=C4C[C@@H](O)CC[C@]4(C)[C@H]3CC[C@]12C [Compound I-28]
[3]; [4]
  inhibition at 400 µM: 18.3%
[3]; [5]
  inhibition at 40 µM: 13.5%

## C#C[C@H]1CC[C@H]2[C@@H]3CC=C4C[C@@H](O)CC[C@]4(C)[C@H]3CC[C@]12C [Compound I-29]
[3]; [4]
  inhibition at 400 µM: 3.84%
[3]; [5]
  inhibition at 40 µM: 8.26%

Reference: patent US5264427A, “20-substituted pregnene derivatives and their use as androgen synthesis inhibitors” (priority 1992, dated 1993)
